Test results as given in patent publication US20150105252A1, “SUBSTITUTED PYRAZOLES AS HERBICIDES” (E I DU PONT DE NEMOURS AND COMPANY, priority 2013, published 2015).

Legend:
wheat = test: Test A preemergence; type: in vivo, Triticum aestivum; conditions: preemergence
In short: (§1)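 Greenhouse test in loam soil/sand blend; compounds formulated in non-phytotoxic solvent with surfactant, applied as preemergence directed soil spray or postemergence to plants 2–10 cm tall at one- to two-leaf stage. Injury rated visually versus untreated controls after approximately 10 days on a 0 (no effect) to 100 (complete control) scale.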

pigweed = test: Test A postemergence; type: in vivo, Amaranthus retroflexus
In short: as §1

ryegrass, Italian [1] = test: Test C preemergence; type: in vivo, Lolium multiflorum; conditions: for Plant response rating (scale of 0 to 100), Ryegrass, Italian: 250 g ai/ha
Excerpt: (§2) Seeds of plant species selected from blackgrass (Alopecurus myosuroides), ryegrass, Italian (Italian ryegrass, Lolium multiflorum), wheat (winter wheat, Triticum aestivum), galium (catchweed bedstraw, Galium aparine), corn (Zea mays), crabgrass, large (large crabgrass, Digitaria sanguinalis), foxtail, giant (giant foxtail, Setaria faberii), johnsongrass (Sorghum halepense), lambsquarters (Chenopodium album), morningglory (Ipomoea coccinea), nutsedge, yellow (yellow nutsedge, Cyperus esculentus), pigweed (redroot pigweed, Amaranthus retroflexus), ragweed (common ragweed, Ambrosia elation), soybean (Glycine max), barnyardgrass (Echinochloa crus-galli), oilseed rape (Brassica napus), waterhemp (common waterhemp, Amaranthus rudis), oat, wild (wild oat, Avena fatua), kochia (Kochia scoparia), Surinam grass (Brachiaria decumbens), foxtail, green (green foxtail, Setaria viridis), goosegrass (Eleusine indica), bromegrass, downy (downy bromegrass, Bromus tectorum), nightshade (eastern black nightshade, Solanum ptycanthum), cocklebur (common cocklebur, Xanthium strumarium), cupgrass, woolly (woolly cupgrass, Eriochloa villosa), bermudagrass (Cynodon dactylon), sunflower, (common oilseed sunflower, Helianthus annuus), Russian thistle (Salsola kali), and velvetleaf (Abutilon theophrasti) were planted into a blend of loam soil and sand and treated preemergence with test chemicals formulated in a non-phytotoxic solvent mixture which included a surfactant.
(§3) At the same time, plants selected from these crop and weed species and also chickweed (common chickweed, Stellaria media), canarygrass (littleseed canarygrass, Phalaris minor), and deadnettle (henbit deadnettle, Lamium amplexicaule), were planted in pots containing Redi-Earth® planting medium (Scotts Company, 14111 Scottslawn Road, Marysville, Ohio 43041) comprising spaghnum peat moss, vermiculite, wetting agent and starter nutrients and treated with postemergence applications of test chemicals formulated in the same manner. Plants ranged in height from 2 to 18 cm (1- to 4-leaf stage) for postemergence treatments. Treated plants and controls were maintained in a greenhouse for 13 to 15 days, after which time all species were compared to controls and visually evaluated. Plant response ratings, summarized in Table C, are based on a scale of 0 to 100 where 0 is no effect and 100 is complete control. A dash (-) response means no test result.

crabgrass, large = test: Test C preemergence; type: in vivo, Digitaria sanguinalis; conditions: for Plant response rating (scale of 0 to 100), Crabgrass, Large: 250 g ai/ha
Excerpt: as §2, §3

foxtail, giant = test: Test C preemergence; type: in vivo, Setaria faberii; conditions: for Plant response rating (scale of 0 to 100), Foxtail, Giant: 250 g ai/ha
Excerpt: as §2, §3

nutsedge, yellow = test: Test C preemergence; type: in vivo, Cyperus esculentus; conditions: for Plant response rating (scale of 0 to 100), Nutsedge, Yellow: 250 g ai/ha
Excerpt: as §2, §3

ragweed = test: Test C preemergence; type: in vivo, Ambrosia elation; conditions: for Plant response rating (scale of 0 to 100), Ragweed: 250 g ai/ha
Excerpt: as §2, §3

ryegrass, Italian [2] = test: Test C postemergence; type: in vivo, Lolium multiflorum; conditions: postemergence
Excerpt: as §2, §3

corn = test: Test C postemergence; type: in vivo, Zea mays; conditions: for Corn plant response rating: scale 0 to 100
Excerpt: as §2, §3

lambsquarters = test: Test C postemergence; type: in vivo, Chenopodium album; conditions: for Lambsquarters plant response rating: scale 0 to 100
Excerpt: as §2, §3

ducksalad = test: Test B flood; type: in vivo, Heteranthera limosa; conditions: 250 g ai/ha, visual rating on 0 to 100 scale (0 no effect, 100 complete control), 13 to 15 days
In short: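 Visual ratings (0 = no effect, 100 = complete control) versus untreated controls were taken 13–15 days after treatment of greenhouse plants. Treatment was added to paddy water held at 3 cm depth on 2-leaf-stage seedlings.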

waterhemp = test: Test C preemergence; type: in vivo, Amaranthus rudis; conditions: for Plant response rating, Waterhemp: Preemergence, scale 0 to 100
Excerpt: as §2, §3

[3] = 125 g ai/ha, visual injury, 0 to 100 scale, approx. 10 days
[4] = 500 g ai/ha, visual injury after approx. 10 days, 0 to 100 scale (0 no effect, 100 complete control)
[5] = Postemergence, 500 g ai/ha, visual rating after approx. 10 days, 0 to 100 scale (0 no effect, 100 complete control)
[6] = postemergence, 125 g ai/ha, about 10 days, visual rating on 0 to 100 scale (0 no effect, 100 complete control)
[7] = preemergence, 31 g ai/ha, scale 0 to 100 (0 no effect, 100 complete control), 13 to 15 days
[8] = preemergence, 62 g ai/ha, 13 to 15 days, scale 0 to 100, 0 = no effect, 100 = complete control
[9] = preemergence, 125 g ai/ha, scale 0 to 100, 0 is no effect, 100 is complete control
[10] = 250 g ai/ha, scale 0 to 100 (0 no effect, 100 complete control)
[11] = 125 g ai/ha, scale 0 to 100, 0 no effect, 100 complete control
[12] = postemergence, 250 g ai/ha, scale 0 to 100 (0 no effect, 100 complete control)
[13] = postemergence, 62 g ai/ha, scale 0 to 100, 0 no effect, 100 complete control
[14] = postemergence, 125 g ai/ha, scale 0 to 100, 0 no effect, 100 complete control
[15] = Preemergence, 4 g ai/ha, scale 0 to 100
[16] = Preemergence, 8 g ai/ha, scale 0 to 100
[17] = Preemergence, 16 g ai/ha, scale 0 to 100
[18] = preemergence, 31 g ai/ha, visual rating, scale 0 to 100 (0 no effect, 100 complete control), 13 to 15 days

## CCc1cc(C(=O)NOC(C)C)nn1Cc1cccc(OC(F)(F)F)c1 [Compound 70]
wheat; [3]
  Wheat plant response rating: 50
wheat; [4]
  Wheat plant response rating: 30
pigweed; [5]
  Pigweed plant response rating: 100
pigweed; [6]
  Pigweed plant response rating: 90
ryegrass, Italian [1]; Preemergence
  Plant response rating (scale of 0 to 100), Ryegrass, Italian: 80
ryegrass, Italian [1]; [7]
  Ryegrass, Italian plant response rating: 20
ryegrass, Italian [1]; [8]
  Plant response rating, Ryegrass, Italian: 30
ryegrass, Italian [1]; [9]
  Ryegrass, Italian plant response rating: 60
crabgrass, large; Preemergence
  Plant response rating (scale of 0 to 100), Crabgrass, Large: 100
crabgrass, large; [7]
  Crabgrass, Large plant response rating: 95
crabgrass, large; [8]
  Plant response rating, Crabgrass, Large: 98
crabgrass, large; [9]
  Crabgrass, Large plant response rating: 98
foxtail, giant; Preemergence
  Plant response rating (scale of 0 to 100), Foxtail, Giant: 98
foxtail, giant; [7]
  Foxtail, Giant plant response rating: 65
foxtail, giant; [8]
  Plant response rating, Foxtail, Giant: 75
foxtail, giant; [9]
  Foxtail, Giant plant response rating: 90
nutsedge, yellow; Preemergence
  Plant response rating (scale of 0 to 100), Nutsedge, Yellow: 85
nutsedge, yellow; [7]
  Nutsedge, Yellow plant response rating: 0
nutsedge, yellow; [8]
  Plant response rating, Nutsedge, Yellow: 65
nutsedge, yellow; [9]
  Nutsedge, Yellow plant response rating: 70
ragweed; Preemergence
  Plant response rating (scale of 0 to 100), Ragweed: 40
ragweed; [7]
  Ragweed plant response rating: 0
ragweed; [8]
  Plant response rating, Ragweed: 25
ragweed; [9]
  Ragweed plant response rating: 30
ryegrass, Italian [2]; [10]
  Plant response rating, Ryegrass, Italian: 50
ryegrass, Italian [2]; 62 g ai/ha, scale 0 to 100, 0 no effect, 100 complete control
  Plant response rating, Ryegrass, Italian: 25
ryegrass, Italian [2]; [11]
  Plant response rating, Ryegrass, Italian: 35
corn; Postemergence, 31 g ai/ha
  Corn plant response rating: 10
corn; [12]
  Plant response rating, Corn: 50
corn; [13]
  Plant response rating, Corn: 40
corn; [14]
  Plant response rating, Corn: 45
lambsquarters; Postemergence, 31 g ai/ha
  Lambsquarters plant response rating: 75
lambsquarters; [12]
  Plant response rating, Lambsquarters: 98
lambsquarters; [13]
  Plant response rating, Lambsquarters: 95
lambsquarters; [14]
  Plant response rating, Lambsquarters: 95

## CCONC(=O)c1cc(CC)n(Cc2cccc(OC(F)(F)F)c2)n1 [Compound 72]
wheat; [3]
  Wheat plant response rating: 50
wheat; [4]
  Wheat plant response rating: 10
pigweed; [5]
  Pigweed plant response rating: 100
pigweed; [6]
  Pigweed plant response rating: 90
ryegrass, Italian [1]; Preemergence
  Plant response rating (scale of 0 to 100), Ryegrass, Italian: 95
ryegrass, Italian [1]; [7]
  Ryegrass, Italian plant response rating: 40
ryegrass, Italian [1]; [8]
  Plant response rating, Ryegrass, Italian: 85
ryegrass, Italian [1]; [9]
  Ryegrass, Italian plant response rating: 85
crabgrass, large; Preemergence
  Plant response rating (scale of 0 to 100), Crabgrass, Large: 98
crabgrass, large; [7]
  Crabgrass, Large plant response rating: 55
crabgrass, large; [8]
  Plant response rating, Crabgrass, Large: 95
crabgrass, large; [9]
  Crabgrass, Large plant response rating: 98
foxtail, giant; Preemergence
  Plant response rating (scale of 0 to 100), Foxtail, Giant: 100
foxtail, giant; [7]
  Foxtail, Giant plant response rating: 65
foxtail, giant; [8]
  Plant response rating, Foxtail, Giant: 80
foxtail, giant; [9]
  Foxtail, Giant plant response rating: 85
nutsedge, yellow; Preemergence
  Plant response rating (scale of 0 to 100), Nutsedge, Yellow: 85
nutsedge, yellow; [7]
  Nutsedge, Yellow plant response rating: 0
nutsedge, yellow; [8]
  Plant response rating, Nutsedge, Yellow: 40
nutsedge, yellow; [9]
  Nutsedge, Yellow plant response rating: 60
ragweed; Preemergence
  Plant response rating (scale of 0 to 100), Ragweed: 60
ragweed; [7]
  Ragweed plant response rating: 0
ragweed; [8]
  Plant response rating, Ragweed: 50
ragweed; [9]
  Ragweed plant response rating: 55
ryegrass, Italian [2]; 62 g ai/ha, scale 0 to 100
  Ryegrass, Italian plant response rating: 10
ryegrass, Italian [2]; [10]
  Plant response rating, Ryegrass, Italian: 40
ryegrass, Italian [2]; [11]
  Plant response rating, Ryegrass, Italian: 15
corn; Postemergence, 31 g ai/ha
  Corn plant response rating: 10
corn; postemergence, 62 g ai/ha
  Corn plant response rating: 10
corn; [12]
  Plant response rating, Corn: 60
corn; [14]
  Plant response rating, Corn: 10
lambsquarters; Postemergence, 31 g ai/ha
  Lambsquarters plant response rating: 60
lambsquarters; postemergence, 62 g ai/ha
  Lambsquarters plant response rating: 70
lambsquarters; [12]
  Plant response rating, Lambsquarters: 98
lambsquarters; [14]
  Plant response rating, Lambsquarters: 90

## CCOc1cc(C(=O)NCC(F)(F)F)nn1Cc1cc(C(F)(F)F)nn1C [Compound 140]
wheat; [3]
  Wheat plant response rating: 70
wheat; [4]
  Wheat plant response rating: 100
pigweed; Postemergence, 500 g ai/ha, 0 to 100 scale (0 no effect, 100 complete control)
  Pigweed plant response rating: 100
pigweed; [6]
  Pigweed plant response rating: 100
ducksalad
  Plant response rating, Ducksalad: 95
ryegrass, Italian [1]; [15]
  Plant response rating, Ryegrass, Italian: 0
ryegrass, Italian [1]; [16]
  Plant response rating, Ryegrass, Italian: 5
ryegrass, Italian [1]; [17]
  Plant response rating, Ryegrass, Italian: 10
ryegrass, Italian [1]; [18]
  Ryegrass, Italian plant response rating: 55
crabgrass, large; [15]
  Plant response rating, Crabgrass, Large: 45
crabgrass, large; [16]
  Plant response rating, Crabgrass, Large: 55
crabgrass, large; [17]
  Plant response rating, Crabgrass, Large: 75
crabgrass, large; [18]
  Crabgrass, Large plant response rating: 98
foxtail, giant; [15]
  Plant response rating, Foxtail, Giant: 20
foxtail, giant; [16]
  Plant response rating, Foxtail, Giant: 40
foxtail, giant; [17]
  Plant response rating, Foxtail, Giant: 75
foxtail, giant; [18]
  Foxtail, Giant plant response rating: 70
nutsedge, yellow; [15]
  Plant response rating, Nutsedge, Yellow: 0
nutsedge, yellow; [16]
  Plant response rating, Nutsedge, Yellow: 15
nutsedge, yellow; [17]
  Plant response rating, Nutsedge, Yellow: 0
nutsedge, yellow; [18]
  Nutsedge, Yellow plant response rating: 15
ragweed; [15]
  Plant response rating, Ragweed: 5
ragweed; [16]
  Plant response rating, Ragweed: 5
ragweed; [17]
  Plant response rating, Ragweed: 25
ragweed; [18]
  Ragweed plant response rating: 70
waterhemp; 4 g ai/ha
  Plant response rating, Waterhemp: 70
waterhemp; 8 g ai/ha
  Plant response rating, Waterhemp: 70
waterhemp; 16 g ai/ha
  Plant response rating, Waterhemp: 85
waterhemp; [18]
  Waterhemp plant response rating: 95
